Experimental data as given in PMC12133982, “Predominant T-cell epitopes of SARS-CoV-2 restricted by multiple prevalent HLA-B and HLA-C allotypes in Northeast Asia” (Frontiers in Immunology, 2025).
Peptide text beside a SMILES is read from it.

Assays:
[1] = target: HLA-B3501 (Homo sapiens, UniProt P01889, A329T/A93T/A95T/C349S/D201E/D98Y/E176V/E187L/E204Q/E69T/I218V/K202T/L119I/Q94N/R155S/R180L/S121R/S35A/S48A/T118I/V127L/V306I/V36M/Y140S/Y91F); assay: Competitive peptide binding assay, CIR-B3501; settings: HMy2.CIR-B3501 cells, reference Cy5-[…], class from inhibition at 5 and 15 μM, flow cytometry MFI; read-out: Binding affinity with HLA-B3501
Method: (§1) Then, competitive peptide binding assays were performed.

[2] = target: HLA-B1502 (Homo sapiens, UniProt P01889, A329T/A93T/A95T/C349S/D201E/D98Y/E187L/E204Q/E69M/E70A/H137Y/K202T/L119I/Q94N/R155S/R180L/S121R/S35A/S48A/T118I/V306I/V36M/Y140S/Y91S); assay: Competitive peptide binding assay, CIR-B1502; settings: HMy2.CIR-B1502 cells, reference Cy5-[…], class from inhibition at 5 and 15 μM, flow cytometry MFI; read-out: Binding affinity with HLA-B1502
Method: as §1

[3] = target: HLA-B5801 (Homo sapiens, UniProt P01889, A329T/C349S/D201E/D98Y/E176V/E187L/E204Q/E69T/G107R/I218V/I90N/K202T/L105A/L119I/N104I/N87E/Q89R/Q94S/R106L/R155S/R180L/R86G/S101N/S121R/S35A/S48A/T118I/V127L/V306I/V36M/Y140S/Y91M); assay: Competitive peptide binding assay, CIR-B5801; settings: HMy2.CIR-B5801 cells, reference Cy5-[…], class from inhibition at 5 and 15 μM, flow cytometry MFI; read-out: Binding affinity with HLA-B5801
Method: as §1

[4] = target: HLA-B4001 (Homo sapiens, UniProt P01889, A65T/A93T/A95T/D138N/D98Y/E176V/E69K/N87E/Q56L/Q94N/R180L/S121R/S35A/S48T/T167S/V36M/W171L/Y33H/Y91S); assay: Competitive peptide binding assay, CIR-B4001; settings: HMy2.CIR-B4001 cells, reference Cy5-[…], class from inhibition at 5 and 15 μM, flow cytometry MFI; read-out: Binding affinity with HLA-B4001
Method: as §1

[5] = target: HLA-B1501 (Homo sapiens, UniProt P01889, A329T/A93T/A95T/C349S/D201E/D98Y/E187L/E204Q/E69M/E70A/K202T/N87E/Q94N/R155S/R180W/S121R/S35A/S48A/V306I/V36M/Y140S/Y91S); assay: Competitive peptide binding assay, CIR-B1501; settings: HMy2.CIR-B1501 cells, reference Cy5-[…], class from inhibition at 5 and 15 μM, flow cytometry MFI; read-out: Binding affinity with HLA-B1501
Method: as §1

[6] = target: HLA-B4801 (Homo sapiens, UniProt P01889, A269T/A93T/A95T/D138N/D98Y/E176V/N87E/Q94N/R180L/T167S/W171L/Y91S); assay: Competitive peptide binding assay, CIR-B4801; settings: HMy2.CIR-B4801 cells, reference Cy5-[…], class from inhibition at 5 and 15 μM, flow cytometry MFI; read-out: Binding affinity with HLA-B4801
Method: as §1

[7] = target: HLA-B4601 (Homo sapiens, UniProt P01889, A329T/A93R/C349S/D201E/E100V/E187L/E204Q/E69M/E70A/I90K/K202T/N87E/R155S/R180W/S121R/S35A/S48A/V306I/V36M/Y140S); assay: Competitive peptide binding assay, CIR-B4601
Method: as §1

[8] = target: HLA-B1301 (Homo sapiens, UniProt P01889, A65T/A93T/A95T/D138N/D201E/D98Y/E176V/E204Q/E69M/E70A/G107R/K202T/L105A/L119I/N104T/N87E/Q94N/R106L/R155S/R169L/R180L/S101N/S121R/S35A/S48T/T118I/V127L/V36M/Y140L/Y91S); assay: Competitive peptide binding assay, CIR-B1301; settings: HMy2.CIR-B1301 cells, reference Cy5-[…], class from inhibition at 5 and 15 μM, flow cytometry MFI; read-out: Binding affinity with HLA-B1301
Method: as §1

[9] = target: HLA-B1302 (Homo sapiens, UniProt P01889, A65T/A93T/A95T/D138N/D201E/D98Y/E176V/E204Q/E69M/E70A/G107R/K202T/L105A/L119W/N104T/N87E/Q94N/R106L/R155S/R169L/R180L/S101N/S121T/S35A/S48T/V127L/V36M/Y140L/Y91S); assay: Competitive peptide binding assay, CIR-B1302; settings: HMy2.CIR-B1302 cells, reference Cy5-MMWYWGPSL, class from inhibition at 5 and 15 μM, flow cytometry MFI; read-out: Binding affinity with HLA-B1302
Method: as §1

Structure (SMILES)	IC50 [1] [µM]	IC50 [2] [µM]	IC50 [3] [µM]	IC50 [4] [µM]	IC50 [5] [µM]	IC50 [6] [µM]	IC50 ([7]; HMy2.CIR-B4601 cells, reference Cy5-[…], class from inhibition at 5 and 15 μM, flow cytometry MFI, read-out: Binding affinity with HLA-B4601) [µM]	inhibition at 5 µM ([7]; read-out: Inhibition % of Cy5-reference peptide binding, CIR-B4601, 5μM peptide) [%]	inhibition at 15 µM ([7]; read-out: Inhibition % of Cy5-reference peptide binding, CIR-B4601, 15μM peptide) [%]	IC50 [8] [µM]	IC50 [9] [µM]
CC(C)C[C@H](NC(=O)[C@H](CCC(=O)O)NC(=O)[C@H](CCCCN)NC(=O)[C@H](Cc1ccccc1)NC(=O)[C@H](CO)NC(=O)[C@@H](N)CC(C)C)C(=O)N[C@@H](CC(C)C)C(=O)N[C@H](C(=O)N[C@@H](Cc1ccc(O)cc1)C(=O)O)C(C)C [Epitope Y142] (H-LSFKELLVY-OH; N-terminus and C-terminus assumed)	> 15	> 15	< 5	> 15	5 to 15	> 15	–	–	–	–	–
CC[C@H](C)[C@H](NC(=O)[C@H](C)NC(=O)CNC(=O)[C@@H](NC(=O)[C@H](Cc1ccc(O)cc1)NC(=O)[C@@H](NC(=O)[C@@H](N)CC(C)C)[C@@H](C)O)[C@@H](C)O)C(=O)N[C@@H](CCCCN)C(=O)N[C@@H](CC(C)C)C(=O)O [Epitope Y243] (H-LTYTGAIKL-OH; N-terminus and C-terminus assumed)	> 15	> 15	–	–	> 15	> 15	< 5	77.3	94	> 15	–
CSCC[C@H](NC(=O)[C@H](C)NC(=O)[C@H](CCC(=O)O)NC(=O)[C@H](Cc1ccc(O)cc1)NC(=O)[C@H](Cc1ccccc1)NC(=O)[C@H](CCC(=O)O)NC(=O)[C@@H]1CCCN1C(=O)[C@H](CCC(=O)O)NC(=O)[C@@H](N)Cc1c[nH]c2ccccc12)C(=O)O [Epitope Y200] (H-WEPEFYEAM-OH; N-terminus and C-terminus assumed)	> 15	–	> 15	–	> 15	> 15	–	–	–	> 15	> 15
CC[C@H](C)[C@H](NC(=O)[C@H](C)NC(=O)[C@H](C)NC(=O)[C@H](CC(N)=O)NC(=O)CNC(=O)[C@H](CC(=O)O)NC(=O)[C@H](CCC(N)=O)NC(=O)[C@H](C)NC(=O)[C@@H](N)Cc1ccccc1)C(=O)O [Epitope Y246] (H-FAQDGNAAI-OH; N-terminus and C-terminus assumed)	> 15	> 15	> 15	–	> 15	> 15	–	–	–	> 15	> 15
CC(C)C[C@H](N)C(=O)N[C@H](C(=O)N[C@@H](CCCCN)C(=O)N1CCC[C@H]1C(=O)N[C@@H](CO)C(=O)N[C@@H](Cc1ccccc1)C(=O)N[C@@H](Cc1ccc(O)cc1)C(=O)N[C@H](C(=O)N[C@@H](Cc1ccc(O)cc1)C(=O)O)C(C)C)C(C)C [Epitope Y125] (H-LVKPSFYVY-OH; N-terminus and C-terminus assumed)	–	> 15	5 to 15	–	< 5	> 15	–	–	–	–	> 15
C[C@H](NC(=O)[C@H](CO)NC(=O)[C@@H](N)CCCCN)C(=O)NCC(=O)N[C@@H](Cc1ccccc1)C(=O)N1CCC[C@H]1C(=O)N[C@@H](Cc1ccccc1)C(=O)N[C@@H](CC(N)=O)C(=O)N[C@@H](CCCCN)C(=O)N[C@@H](Cc1c[nH]c2ccccc12)C(=O)O [Epitope Y306] (H-KSAGFPFNKW-OH; N-terminus and C-terminus assumed)	–	–	–	> 15	> 15	> 15	–	–	–	–	< 5
